This is an account of results in article PMC9929129, “Towards Translation of PqsR Inverse Agonists: From In Vitro Efficacy Optimization to In Vivo Proof‐of‐Principle” (Advanced Science, 2023).

In series [1] the target is T1, CFTR cystic fibrosis transmembrane conductance regulator (Homo sapiens, UniProt P13569).
T1 construct: host or cells: CHO cells
The experiment in a line: Ion channel profiling at Charles River: CFTR. It counts as cell-based. Particulars: expressed in CHO cells; read-out: ESTIMATED IC50. Here is the method: (§1) 1.4.3 Ion Channel Profiling at Charles River
(§2) Table S9. Compound 24 was tested against the following ion channels at Charles River Laboratories. […]
FASTPatch Assay IK (KCa3.1) calcium-activated potassium channel (human KCNN4 >30 gene) expressed in CHO cells […]
CFTR cystic fibrosis transmembrane conductance regulator (Cl-channel encoded by human CFTR gene) expressed in CHO cells >30 […]
(§3) FLIPR Assay expressed in HEK293 cells
GABAA α5/β3/γ2 ionotropic receptor (human GABRA5, GABRB3, >30 and GABRG2 genes, expressed in HEK293 cells

Another series addresses T2, TRPV1 channel (Homo sapiens, UniProt Q8NER1).
T2 construct: host or cells: HEK293 cells
Description: Ion channel profiling at Charles River: TRPV1. The series is classed as cell-based. As to conditions: expressed in HEK293 cells; read-out: ESTIMATED IC50. Here is the method:
as §1, §2, §3
GABAA α5/β3/γ2 ionotropic receptor (human GABRA5, GABRB3, >30 and GABRG2 genes, expressed in HEK293 cells […]
TRPV1 channel (human TRPV1 gene) expressed in HEK293 cells >30 […]
An increase in the number of colonies of at least two-fold over baseline (mean + SD of the vehicle control) and a dose response indicate a positive response. An […]
different from the vehicle control.
Where indicated, S9 fraction from the livers of Aroclor 1254-treated rats were included in the incubation at a final concentration of 4.5%. A NADPH-regenerating system was also included to ensure a steady supply of reducing equivalents.

A short description of series [2]: In vivo PK study, intratracheal (IT) and intravenous (IV). Particulars: for Tmax / CL/F / Vd/F / half-life: male, CD1, mouse; for Cl/F_obs / Vz/F_obs: […] IV. Here is the method: The enzymatic activity of the MLM
First, a calibration curve was prepared by […]
lavage fluid (BALF). Caffeine was used as
The in live part for the IV and IT PK studies were performed at CRO Saretius (UK). Groups of male CD1 […]
light/dark cycle with free access to food and water. Temperature and humidity were controlled according to U.K. HO regulations. On the day of the study, mice were briefly anesthetized with isoflurane before suspending the mouse by its upper incisors on a board held at an angle of approx.
45 degrees. Mice were then dosed intratracheally with the compound (24 or Tob) at the designated does formulated in ethanol/tyloxapol/glycerol/phosphate-buffered saline (PBS) [10:1:5:84] in a 1 mL/kg dosing volume up to a maximum of 30 µL per mouse. A laryngoscope was used to facilitate dosing. Animals were allowed to recover before replacing into their home cages. Terminal blood samples were then taken from groups of 3 mice at each of eight time points post-dose by cardiac puncture under CO2. Blood samples were placed in tubes on ice containing EDTA anticoagulant. After gentle mixing, samples were centrifuged (10,000 rpm x 3 min) and two 50 μL aliquots taken into fresh tubes that were immediately frozen on dry ice. Following blood sample collection, tracheas were exposed and a small incision made. An 18 Gauge plastic tube was then inserted through the incision into the trachea and tied in place. Aliquots of 0.8 mL of sterile saline were then infused into and then withdrawn from the lungs and the collected bronchoalveolar lavage (BALF) sample placed into a tube. This process was repeated two more times, and the samples from each mouse pooled. […]
frozen by immersion in liquid nitrogen.

Series [3] in a line: SafetyScreen44 (Eurofins), whole panel. Particulars: at 10 × 10^−6 M. Here is the method: 1.4 Safety Pharmacology of Compound 24
1.4.1 Cerep panel (Eurofins)
Compound 24 was further profiled for its off-target interactions against a panel of 44 targets. The screening was done by Eurofins Pharma Discovery within the SafetyScreen44 Panel (Cerep, ITEM P270). In all assays binding/functional inhibition was determined at 10 µM.
Table S6. List of binding assays within the CEREP44 off-target panel and binding data for compound […]
Ca2+ channel (L, dihydropyridine site) (antagonist radioligand) 75.3
Norepinephrine transporter (h) (antagonist radioligand) 74.7
Potassium Channel hERG (human) [3H] Dofetilide 73.1 […]
5-HT transporter (h) (antagonist radioligand) 49.8 […]
MAO-A (antagonist radioligand) 24.9 kappa (h) (KOP) (agonist radioligand) 23.6 dopamine transporter (h) (antagonist radioligand) 22.7 […]
KV channel (antagonist radioligand) 14.2 […]
5-HT1A (h) (agonist radioligand) 11.3 alpha2A (h) (antagonist radioligand) 8.4 […]

[4] abbreviates: epithelial lining fluid, iv, ELF Tmax.

T1 sequence (P13569 whole entry): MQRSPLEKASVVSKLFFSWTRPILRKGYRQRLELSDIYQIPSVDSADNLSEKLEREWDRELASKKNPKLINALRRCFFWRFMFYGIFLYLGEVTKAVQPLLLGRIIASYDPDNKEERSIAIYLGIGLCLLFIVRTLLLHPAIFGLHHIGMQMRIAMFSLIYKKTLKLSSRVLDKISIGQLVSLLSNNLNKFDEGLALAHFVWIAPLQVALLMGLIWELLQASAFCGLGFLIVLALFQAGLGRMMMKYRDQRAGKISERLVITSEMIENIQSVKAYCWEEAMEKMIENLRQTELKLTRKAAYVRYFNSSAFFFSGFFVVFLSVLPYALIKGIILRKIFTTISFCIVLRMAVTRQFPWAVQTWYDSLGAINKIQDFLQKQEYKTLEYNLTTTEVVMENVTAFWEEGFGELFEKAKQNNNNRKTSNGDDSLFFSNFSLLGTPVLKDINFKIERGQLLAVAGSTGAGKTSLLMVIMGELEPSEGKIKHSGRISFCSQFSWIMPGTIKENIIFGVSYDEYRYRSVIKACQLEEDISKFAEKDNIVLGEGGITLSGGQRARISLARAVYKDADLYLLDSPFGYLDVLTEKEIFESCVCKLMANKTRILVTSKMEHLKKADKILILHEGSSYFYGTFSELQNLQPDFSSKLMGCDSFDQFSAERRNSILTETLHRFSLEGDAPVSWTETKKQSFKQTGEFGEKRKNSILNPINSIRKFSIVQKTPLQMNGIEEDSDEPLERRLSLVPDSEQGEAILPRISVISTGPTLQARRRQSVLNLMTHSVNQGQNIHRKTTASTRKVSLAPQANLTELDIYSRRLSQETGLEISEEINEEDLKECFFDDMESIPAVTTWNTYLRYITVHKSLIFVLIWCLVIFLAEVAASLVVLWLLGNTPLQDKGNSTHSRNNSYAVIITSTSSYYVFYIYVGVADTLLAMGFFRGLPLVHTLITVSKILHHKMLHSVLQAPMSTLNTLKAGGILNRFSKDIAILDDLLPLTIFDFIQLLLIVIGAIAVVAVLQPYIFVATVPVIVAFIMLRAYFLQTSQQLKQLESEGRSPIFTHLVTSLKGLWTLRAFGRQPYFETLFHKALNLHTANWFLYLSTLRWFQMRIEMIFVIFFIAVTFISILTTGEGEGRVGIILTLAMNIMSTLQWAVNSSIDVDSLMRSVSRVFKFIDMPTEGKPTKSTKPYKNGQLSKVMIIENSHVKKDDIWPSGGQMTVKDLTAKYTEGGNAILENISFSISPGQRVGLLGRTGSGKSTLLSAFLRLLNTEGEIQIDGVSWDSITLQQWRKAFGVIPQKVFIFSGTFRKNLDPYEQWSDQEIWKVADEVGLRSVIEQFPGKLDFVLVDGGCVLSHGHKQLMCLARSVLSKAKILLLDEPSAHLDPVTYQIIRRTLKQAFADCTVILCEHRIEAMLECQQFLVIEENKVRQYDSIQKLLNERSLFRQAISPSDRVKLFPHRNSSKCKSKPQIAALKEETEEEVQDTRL
T2 sequence (Q8NER1 whole entry): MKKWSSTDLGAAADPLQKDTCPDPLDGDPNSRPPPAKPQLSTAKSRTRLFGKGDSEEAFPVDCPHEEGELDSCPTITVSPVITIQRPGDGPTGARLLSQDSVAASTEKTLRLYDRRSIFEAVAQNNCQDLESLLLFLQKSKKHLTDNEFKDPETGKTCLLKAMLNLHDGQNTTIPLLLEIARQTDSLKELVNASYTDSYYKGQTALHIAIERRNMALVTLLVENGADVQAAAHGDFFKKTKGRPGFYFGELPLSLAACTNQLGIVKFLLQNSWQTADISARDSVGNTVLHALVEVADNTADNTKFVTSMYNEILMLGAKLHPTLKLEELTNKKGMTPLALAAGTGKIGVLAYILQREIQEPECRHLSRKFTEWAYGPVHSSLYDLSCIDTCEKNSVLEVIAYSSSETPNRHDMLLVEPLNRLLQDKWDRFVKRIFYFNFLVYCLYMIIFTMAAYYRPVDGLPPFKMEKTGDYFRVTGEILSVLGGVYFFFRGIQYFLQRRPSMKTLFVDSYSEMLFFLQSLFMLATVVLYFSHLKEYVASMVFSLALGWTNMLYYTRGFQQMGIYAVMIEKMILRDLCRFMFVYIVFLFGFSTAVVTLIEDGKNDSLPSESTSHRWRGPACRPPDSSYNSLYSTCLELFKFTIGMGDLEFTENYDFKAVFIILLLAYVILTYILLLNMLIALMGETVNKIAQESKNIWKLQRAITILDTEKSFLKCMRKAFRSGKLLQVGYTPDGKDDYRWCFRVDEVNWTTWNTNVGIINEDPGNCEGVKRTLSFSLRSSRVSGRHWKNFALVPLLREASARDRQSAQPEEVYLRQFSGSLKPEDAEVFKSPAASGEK

One may read the IC50 as the midpoint of a concentration-inhibition curve. Broadly, the Tmax is the time from dosing to the highest level. As usually defined, the CL/F is the apparent clearance, not corrected for the fraction that reaches the circulation. A word on the Vd/F: it is the volume of distribution divided by bioavailability. By half-life is commonly meant how long it takes for the measured level to halve. Low readings indicate rapid decline, high ones slow decline. With `CC(C)Oc1ccc(-c2ncc(CNc3ccnc(C(F)(F)F)c3)cn2)cc1Cl` [Compound 24], the IC50 (in series [1]; on TRPV1 channel) was greater than 30 µM in each case. The Tmax worked out at 40.2 ± 54 min in series [2] (setting [4]); 30 min in series [2] (in vivo, inhaled or intranasal, ELF Tmax); 40.2 ± 18 min in series [2] (in vivo, inhaled or intranasal, Lung Tmax); 40.2 ± 18 min in series [2] (in vivo, inhaled or intranasal, Tmax); 4.8 min in series [2] (lung tissue, iv, Lung Tmax). Also, the CL/F in series [2] (in vivo, inhaled or intranasal) came to 0.8 ± 0.1 mL/min/kg. Further, the Vd/F in series [2] (in vivo, inhaled or intranasal) stood at 0.06 L/kg. The half-life in series [2] (in vivo, inhaled or intranasal) was 48.6 min; in series [2] (plasma, iv), 63 ± 6 min. This compound had a Cl/F_obs in series [2] (plasma) of 0.21 ± 0.0 mL/min/kg. For the same compound, in series [2] (plasma), the Vz/F_obs was 0.02 ± 0.0 L/kg. Further, the “effects on any target of SafetyScreen44” value in series [3] is listed as no more than 80%.
Take `NC[C@H]1O[C@H](O[C@H]2[C@H](O)[C@@H](O[C@H]3O[C@H](CO)[C@@H](O)[C@H](N)[C@H]3O)[C@H](N)C[C@@H]2N)[C@H](N)C[C@@H]1O` [Tobramycin, tobramycin]: the Tmax was 40.2 ± 18 min in series [2] (epithelial lining fluid, inhaled or intranasal, ELF Tmax, […] IT); 8.4 ± 6 min in series [2] (setting [4]); 49.8 ± 18 min in series [2] (lung, inhaled or intranasal, Lung Tmax, lung tissue, […] IT); 40.2 ± 18 min in series [2] (plasma, inhaled or intranasal, Tmax, […] IT). The same compound had a CL/F in series [2] (plasma, inhaled or intranasal) of 15.2 ± 8 mL/min/kg. In series [2] (plasma, inhaled or intranasal), this compound showed a Vd/F of 1.02 ± 0.4 L/kg. Further, the half-life in series [2] (plasma, inhaled or intranasal) was 48.6 ± 12 min; in series [2] (plasma, iv), 15 ± 6 min. For the same compound, the Cl/F_obs in series [2] (plasma) was 27.99 ± 1.8 mL/min/kg. The compound also had a Vz/F_obs in series [2] (plasma) of 0.60 ± 0.2 L/kg.
